# Assay results published in ChEMBL document CHEMBL3421531, “Synthesis, and structure-activity relationship for C(4) and/or C(5) thienyl substituted pyrimidines, as a new family of antimycobacterial compounds” (Eur J Med Chem, 2015).
# Tests used:
# Mycolicibacter terrae = experiment: Antimycobacterial activity against Mycobacterium terrae after 10 days by microbroth dilution method; type: functional; details: 240 h
# Mycobacterium avium = experiment: Antimycobacterial activity against Mycobacterium avium after 10 days by microbroth dilution method; type: functional; details: 240 h
# [1] = test system: Mycobacterium tuberculosis; experiment: Antimycobacterial activity against Mycobacterium tuberculosis H37Rv after 10 days by microbroth dilution method; type: functional; details: 240 h
# [2] = Toxicity in peroral dosed mouse after 14 days; type: organism-based; details: in vivo, po
SMILES,MIC (Mycolicibacter terrae),MIC (Mycobacterium avium),MIC [1],LD50 at 336 h [2]
c1ccc(-c2ccc(-c3ncncc3-c3ccsc3)s2)cc1,19.5 µM,19.5 µM,19.5 µM,–
c1csc(-c2cncnc2-c2cccs2)c1,12.7 µM,12.7 µM,12.7 µM,–
c1csc(-c2ccc(-c3ncncc3-c3cc4ccccc4s3)s2)c1,33.2 µM,33.2 µM,33.2 µM,–
Brc1ccc(-c2ncncc2-c2cccs2)s1,38.7 µM,38.7 µM,38.7 µM,–
c1ccc(-c2ccc(-c3ncncc3-c3cccs3)s2)cc1,39 µM,39 µM,39 µM,–
c1csc(-c2ccc(-c3ncncc3-c3csc4ccccc34)s2)c1,0.4 µM,0.98 µM,0.98 µM,90 mg/kg
Brc1ccc(-c2cncnc2)s1,51.8 µM,51.8 µM,51.8 µM,–
Brc1cncnc1,78.6 µM,78.6 µM,78.6 µM,–
NNC(=O)c1ccncc1 [ISONIAZID],0.73 µM,0.73 µM,0.73 µM,–
c1ccc(-c2ccc(-c3cncnc3)s2)cc1,26.2 µM,26.2 µM,26.2 µM,–
c1csc(-c2ncncc2-c2ccsc2)c1,25.6 µM,25.6 µM,25.6 µM,–
c1ccc2c(-c3cncnc3)csc2c1,3.3 µM,3.3 µM,7.07 µM,700 mg/kg
Brc1ccc(-c2ncncc2Br)s1,9.69 µM,9.69 µM,9.69 µM,–
c1csc(-c2ccc(-c3ccncn3)s2)c1,51.2 µM,51.2 µM,51.2 µM,–
c1csc(-c2ncncc2-c2csc3ccccc23)c1,42.5 µM,42.5 µM,42.5 µM,–
Brc1ccc(-c2ncncc2-c2cc3ccccc3s2)s1,33.5 µM,33.5 µM,33.5 µM,–
c1ncc(-c2ccsc2)cn1,77.1 µM,77.1 µM,77.1 µM,–
c1csc(-c2ccc(-c3ncncc3-c3cccs3)s2)c1,0.92 µM,0.92 µM,2.14 µM,160 mg/kg
c1ccc(-c2ccc(-c3ncncc3-c3csc4ccccc34)s2)cc1,0.4 µM,0.4 µM,0.4 µM,45 mg/kg
Brc1ccc(-c2ncncc2-c2ccsc2)s1,19.3 µM,19.3 µM,19.3 µM,–
c1csc(-c2ccc(-c3cncnc3)s2)c1,25.6 µM,25.6 µM,25.6 µM,–
Brc1ccc(-c2ncncc2-c2csc3ccccc23)s1,4.02 µM,8.3 µM,8.3 µM,–
NC(=O)c1cnccn1 [PYRAZINAMIDE],–,–,102 µM,–
c1ccc2sc(-c3cncnc3)cc2c1,58.9 µM,58.9 µM,58.9 µM,–
c1csc(-c2ccc(-c3ncncc3-c3ccsc3)s2)c1,19.1 µM,19.1 µM,19.1 µM,–
c1ccc(-c2ccc(-c3ncncc3-c3cc4ccccc4s3)s2)cc1,4.05 µM,8.37 µM,8.37 µM,–
c1csc(-c2cncnc2)c1,19.1 µM,19.1 µM,38.5 µM,–
c1csc(-c2ncncc2-c2cc3ccccc3s2)c1,21.2 µM,21.2 µM,21.2 µM,–
